From patent US20210261621A1, “Preparation of Dilipid Polymixins and Use Thereof as Antimicrobial Adjuvants” (priority 2018, published 2021)
Converted amounts (≈) assume the structure as drawn. Where two headings read alike, the source gives them in different places. Positions of bridges follow the written chain, without caps; N, C: chain ends. Non-standard residues stand in square brackets, D forms with d. Residues, ends and D or L forms follow the SMILES beside them. *: point of attachment. Benzoyl(4-Ph) = O=C(c1ccc(-c2ccccc2)cc1)*; Lauroyl = CCCCCCCCCCCC(=O)*; Octanoyl = CCCCCCCC(=O)*; Dab = NCC[C@H](N)C(=O)O; Butyryl = CCCC(=O)*

Tests used:
E. cloacae 117029 = type: cell-based, Enterobacter cloacae
Excerpt: (§1) Bacterial strains were either obtained from the American Type Culture Collection (ATCC), Canadian National Intensive Care Unit (CAN-ICU) surveillance study or the Canadian Ward Surveillance (CANWARD) study. Strains from both CAN-ICU and CANWARD are isolates recovered from patients diagnosed with a presumed infectious disease that were admitted in a participating medical center across Canada. Efflux-deficient strain PAO200 (lacking MexAB-OprM efflux system) and PA0750 (lacking MexAB-OprM, MexCD-OprJ, MexEF-OprN, MexJK and MexXY efflux systems, and the outer membrane protein OpmH) were kindly gifted by Dr. Ayush Kumar (University of Manitoba).
(§2) The in vitro antibacterial activity of the compounds studied were assessed by broth microdilution susceptibility testing following CLSI guidelines. Bacterial cultures were grown overnight prior to the assay. The overnight grown cultures were diluted in saline to 0.5 McFarland turbidity, followed by 1:50 dilution in Mueller-Hinton broth (MHB) for inoculation to a final concentration of approximately 5×10^5 colony forming units/mL. Testing was performed on 96-well plates where the tested compounds were 2-fold serially diluted in MHB and incubated with equal volumes of bacterial inoculum at 37° C. for 18 h. […] Wells containing MHB with or without bacterial cells were used as positive or negative control, respectively.

[1] = system: P. aeruginosa PA259-96918; type: cell-based, Pseudomonas aeruginosa
How it was run: (§3)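 Activity was measured as growth inhibition in Mueller-Hinton broth containing 2-fold dilutions of compound, inoculated at approximately 5×10^5 CFU/mL from 0.5 McFarland suspensions. Incubation lasted 18 h at 37° C., per CLSI broth microdilution.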

P. aeruginosa PA101885 = type: cell-based, Pseudomonas aeruginosa
How it was run: as §3

[2] = system: P. aeruginosa PA262-101856; type: cell-based, Pseudomonas aeruginosa
How it was run: as §3

[3] = system: P. aeruginosa PA260-97103; type: cell-based, Pseudomonas aeruginosa
How it was run: as §3

[4] = system: P. aeruginosa CAN-ICU 62308; type: cell-based, Pseudomonas aeruginosa
How it was run: as §3

P. aeruginosa PA100036 = type: cell-based, Pseudomonas aeruginosa
How it was run: as §3

A. baumannii 92247 = type: cell-based, Acinetobacter baumannii
Method: (§4) We then addressed the possibility for the dilipid polymyxins to display enhanced antibacterial activity against colistin-resistant Gram-negative pathogens. […] The extended hydrophobic region of the dilipid polymyxin may provide additional hydrophobic interactions to the outer membrane of colistin-resistant organisms. Eight MDR colistin-resistant Gram-negative bacterial isolates were tested, including two E. coli isolates harboring the mcr-1 plasmid-encoded polymyxin resistance gene. We found no difference between the antibacterial activity of dilipid polymyxins and colistin against colistin-resistant Gram-negative bacteria (Table 3).
as §1, §2

P. aeruginosa 91433 = type: cell-based, Pseudomonas aeruginosa
Method: as §4, §1, §2

P. aeruginosa 114228 = type: cell-based, Pseudomonas aeruginosa
Method: as §4, §1, §2

P. aeruginosa 101243 = type: cell-based, Pseudomonas aeruginosa
Method: as §4, §1, §2

[5] = system: E. coli CANWARD-2011 97615; type: cell-based, Escherichia coli
Excerpt: as §1, §2

[6] = system: S. maltophilia CAN-ICU 62584; type: cell-based, Stenotrophomonas maltophilia
Excerpt: as §1, §2

MRSE CAN-ICU 61589 = type: cell-based, S. epidermidis
Excerpt: as §1, §2

K. pneumoniae ATCC 13883 = type: cell-based, Klebsiella pneumoniae
Excerpt: as §1, §2

K. pneumoniae 116381 = type: cell-based, Klebsiella pneumoniae
Excerpt: as §1, §2

MRSA ATCC 33592 = type: cell-based, Staphylococcus aureus; settings: for fold better MIC than colistin: methicillin-resistant Staphylococcus aureus
Excerpt: as §1, §2

S. aureus ATCC 29213 = type: cell-based, Staphylococcus aureus
Excerpt: as §1, §2

[7] = MRSE CAN-ICU 61589 (methicillin-resistant S. epidermidis)
[8] = MRSA ATCC 33592 (methicillin-resistant Staphylococcus aureus)

Row | Compound | MIC (E. cloacae 117029; 117029) | MIC ([1]; PA259-96918) | MIC (P. aeruginosa PA101885; PA101885) | MIC ([2]; P. aeruginosa PA262-101856) | MIC ([3]; PA260-97103) | MIC ([4]; P. aeruginosa CAN-ICU 62308) | MIC (P. aeruginosa PA100036; P. aeruginosa PA100036) | MIC (A. baumannii 92247; 92247) | MIC (P. aeruginosa 91433; 91433) | MIC (P. aeruginosa 114228; 114228) | MIC (P. aeruginosa 101243; 101243) | MIC [5] | MIC ([6]; S. maltophilia CAN-ICU 62584) | MIC (MRSE CAN-ICU 61589; [7]) | MIC (K. pneumoniae ATCC 13883; K. pneumoniae ATCC 13883) | MIC (K. pneumoniae 116381; K. pneumoniae 116381) | MIC (MRSA ATCC 33592; [8]) | MIC (S. aureus ATCC 29213; S. aureus ATCC 29213) | MIC ([2]; PA262-101856) | MIC ([4]; CAN-ICU 62308) | further results
1 | CCCC(=O)NCC[C@H](NC(=O)CCC)C(=O)N[C@H](C(=O)N[C@@H](CCN)C(=O)N[C@H]1CCNC(=O)[C@H]([C@@H](C)O)NC(=O)[C@H](CCN)NC(=O)[C@H](CCN)NC(=O)[C@H](CC(C)C)NC(=O)[C@@H](Cc2ccccc2)NC(=O)[C@H](CCN)NC1=O)[C@@H](C)O [Compound 1, Dibutyric Acid (Di-C4) Polymyxin] (Butyryl-[Dab](Butyryl)T[Dab][Dab][Dab][dF]L[Dab][Dab]T; lactam 4-C) | 64 µg/mL (≈ 53.2 µM) | 64 µg/mL (≈ 53.2 µM) | 128 µg/mL (≈ 106 µM) | >128 µg/mL | 2 µg/mL (≈ 1.66 µM) | >128 µg/mL | >128 µg/mL | >64 µg/mL | >128 µg/mL | >128 µg/mL | >128 µg/mL | >128 µg/mL | >128 µg/mL | >128 µg/mL | >128 µg/mL | >128 µg/mL | >128 µg/mL | >128 µg/mL |  |  | 
2 | CCCCCCCCCCCC(=O)NCC[C@H](NC(=O)CCCCCCCCCCC)C(=O)N[C@H](C(=O)N[C@@H](CCN)C(=O)N[C@H]1CCNC(=O)[C@H]([C@@H](C)O)NC(=O)[C@H](CCN)NC(=O)[C@H](CCN)NC(=O)[C@H](CC(C)C)NC(=O)[C@@H](Cc2ccccc2)NC(=O)[C@H](CCN)NC1=O)[C@@H](C)O [Compound 3, Didodecanoic Acid (Di-C12) Polymyxin] (Lauroyl-[Dab](Lauroyl)T[Dab][Dab][Dab][dF]L[Dab][Dab]T; lactam 4-C) | 16 µg/mL (≈ 11.2 µM) | 16 µg/mL (≈ 11.2 µM) | 32 µg/mL (≈ 22.4 µM) |  | 32 µg/mL (≈ 22.4 µM) |  |  | 32 µg/mL (≈ 22.4 µM) | 8 µg/mL (≈ 5.6 µM) | >128 µg/mL | 16 µg/mL (≈ 11.2 µM) | 64 µg/mL (≈ 44.8 µM) |  |  | >128 µg/mL | >128 µg/mL | >128 µg/mL | >128 µg/mL | 32 µg/mL (≈ 22.4 µM) | 64 µg/mL (≈ 44.8 µM) | MIC (P. aeruginosa PA100036; PA100036): 32 µg/mL (≈ 22.4 µM); MIC ([6]; CAN-ICU 62584): 128 µg/mL (≈ 89.6 µM); MIC (MRSE CAN-ICU 61589; CAN-ICU 61589): 64 µg/mL (≈ 44.8 µM)
3 | CC(C)C[C@@H]1NC(=O)[C@@H](Cc2ccccc2)NC(=O)[C@H](CCN)NC(=O)[C@@H](NC(=O)[C@H](CCN)NC(=O)[C@@H](NC(=O)[C@H](CCNC(=O)c2ccc(-c3ccccc3)cc2)NC(=O)c2ccc(-c3ccccc3)cc2)[C@@H](C)O)CCNC(=O)[C@H]([C@@H](C)O)NC(=O)[C@H](CCN)NC(=O)[C@H](CCN)NC1=O [Compound 5, Dibiphenyl-4-Carboxylic Acid (Di-Biphenyl) Polymyxin] ({Benzoyl(4-Ph)}-[Dab](Benzoyl(4-Ph))T[Dab][Dab][Dab][dF]L[Dab][Dab]T; lactam 4-C) |  |  |  | 8 µg/mL (≈ 5.62 µM) |  | 16 µg/mL (≈ 11.2 µM) | 8 µg/mL (≈ 5.62 µM) | 8 µg/mL (≈ 5.62 µM) | 8 µg/mL (≈ 5.62 µM) | 16 µg/mL (≈ 11.2 µM) | >128 µg/mL | 32 µg/mL (≈ 22.5 µM) | 64 µg/mL (≈ 45 µM) | 8 µg/mL (≈ 5.62 µM) | >128 µg/mL | >128 µg/mL | 16 µg/mL (≈ 11.2 µM) | 8 µg/mL (≈ 5.62 µM) |  |  | MIC (E. cloacae 117029; E. cloacae 117029): 8 µg/mL (≈ 5.62 µM); MIC ([1]; P. aeruginosa PA259-96918): 8 µg/mL (≈ 5.62 µM); MIC (P. aeruginosa PA101885; P. aeruginosa PA101885): 8 µg/mL (≈ 5.62 µM); MIC ([3]; P. aeruginosa PA260-97103): 8 µg/mL (≈ 5.62 µM); fold better MIC than colistin (MRSA ATCC 33592): 32 fold
4 | colistin [reference compound] |  |  |  | 2 µg/mL |  | 2 µg/mL | 1 µg/mL |  |  |  |  |  | 64 µg/mL | 128 µg/mL | ≤0.25 µg/mL | 1 µg/mL | 512 µg/mL | 256 µg/mL |  |  | MIC (E. cloacae 117029; E. cloacae 117029): 0.125 µg/mL; MIC ([1]; P. aeruginosa PA259-96918): 0.25 µg/mL; MIC (P. aeruginosa PA101885; P. aeruginosa PA101885): 1 µg/mL; MIC ([3]; P. aeruginosa PA260-97103): 0.5 µg/mL; MIC (A. baumannii 92247; A. baumannii 92247, colistin-resistant multidrug-resistant isolate): 4 µg/mL; MIC (P. aeruginosa 91433; P. aeruginosa 91433, colistin-resistant multidrug-resistant isolate): 4 µg/mL; MIC (P. aeruginosa 114228; P. aeruginosa 114228, colistin-resistant multidrug-resistant isolate): 4 µg/mL; MIC (P. aeruginosa 101243; P. aeruginosa 101243, colistin-resistant multidrug-resistant isolate): 1024 µg/mL
5 | CCCCCCCC(=O)NCC[C@H](NC(=O)CCCCCCC)C(=O)N[C@H](C(=O)N[C@@H](CCN)C(=O)N[C@H]1CCNC(=O)[C@H]([C@@H](C)O)NC(=O)[C@H](CCN)NC(=O)[C@H](CCN)NC(=O)[C@H](CC(C)C)NC(=O)[C@@H](Cc2ccccc2)NC(=O)[C@H](CCN)NC1=O)[C@@H](C)O [Compound 2, Dioctanoic Acid (Di-C8) Polymyxin] (Octanoyl-[Dab](Octanoyl)T[Dab][Dab][Dab][dF]L[Dab][Dab]T; lactam 4-C) | 2 µg/mL (≈ 1.52 µM) | 2 µg/mL (≈ 1.52 µM) | 4 µg/mL (≈ 3.04 µM) |  | 2 µg/mL (≈ 1.52 µM) |  |  | 8 µg/mL (≈ 6.08 µM) | 4 µg/mL (≈ 3.04 µM) | 4 µg/mL (≈ 3.04 µM) | 32 µg/mL (≈ 24.3 µM) | 64 µg/mL (≈ 48.6 µM) |  |  |  |  |  |  | 8 µg/mL (≈ 6.08 µM) | 8 µg/mL (≈ 6.08 µM) | MIC (P. aeruginosa PA100036; PA100036): 4 µg/mL (≈ 3.04 µM); MIC ([6]; CAN-ICU 62584): 32 µg/mL (≈ 24.3 µM); MIC (MRSE CAN-ICU 61589; CAN-ICU 61589): 16 µg/mL (≈ 12.2 µM); MIC (K. pneumoniae ATCC 13883; ATCC 13883): >128 µg/mL; MIC (K. pneumoniae 116381; 116381): >128 µg/mL; MIC (MRSA ATCC 33592; ATCC 33592): 16 µg/mL (≈ 12.2 µM); fold better MIC than colistin (MRSA ATCC 33592): 32 fold; MIC (S. aureus ATCC 29213; ATCC 29213): 16 µg/mL (≈ 12.2 µM)
